Experimental findings from US9969687B2, “Compounds useful as CCR9 modulators” (Norgine B.V., priority 2013, dated 2018) are described below.

By Ki is commonly meant the dissociation constant of the complex between target and ligand, obtained from inhibition or displacement.

Chain of CCR9 (P51686 whole entry): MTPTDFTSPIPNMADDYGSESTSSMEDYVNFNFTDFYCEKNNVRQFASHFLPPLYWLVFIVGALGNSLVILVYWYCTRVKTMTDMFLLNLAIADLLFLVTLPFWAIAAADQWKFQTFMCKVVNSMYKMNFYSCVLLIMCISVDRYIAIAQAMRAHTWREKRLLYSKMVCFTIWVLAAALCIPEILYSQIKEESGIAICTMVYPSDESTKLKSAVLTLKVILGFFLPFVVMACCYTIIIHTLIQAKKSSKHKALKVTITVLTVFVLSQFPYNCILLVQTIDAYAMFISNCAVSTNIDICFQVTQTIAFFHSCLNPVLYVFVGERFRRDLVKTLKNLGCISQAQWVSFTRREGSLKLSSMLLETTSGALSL

The assay addresses CCR9 (Homo sapiens (Human), UniProt P51686). Description: FLIPR calcium flux assay using MOLT4 cells, TECK stimulation. The class given is cell-based. The following applies: MOLT4 cells (human T-cell line). The protocol: Biological Activity: FLIPR Assay Using MOLT4 Cells
A calcium flux assay was used to determine the ability of the compounds to interfere with the binding between CCR9 and its chemokine ligand (TECK) in MOLT4 cells (a human T-cell line). MOLT4 cells were seeded (100,000 cells/well) in corning cell culture plates (Cat #3603) in assay buffer (1×HBSS, 20 mM HEPES) containing 2.5 mM Probenecid. The plate was centrifuged at 1200 rpm for 3 minutes and incubated at 37° C./5% CO2 for 2 hours. A 0.3× Fluo-4 NW calcium dye was prepared in assay buffer containing 5 mM Probenecid and stored in the dark. Each well was loaded with 25 μl of 0.3× Fluo-4 NW calcium dye and incubated at 37° C./5% CO2 for 60 minutes and then at room temperature for 30 minutes. A half-log serially diluted concentration response curve was prepared at a 4× concentration for each (10 μM-0.1 nM final assay concentration) and 25 μL of the compound then transferred to the cells (100 μL final volume) for 60 minutes prior to stimulation (30 minutes at 37° C./5% CO2 and 30 minutes at room temperature). […] The increased in intracellular calcium levels was measured with the FLIPR instrument. The potency of the compound as CCR9 antagonist was calculated as an IC50 using GraphPad Prism software (variable slope four parameter). The Ki of the compound was determined from the IC50 values using the following equation. IC50/1+(Agonist (TECK) conc. used in assay/EC50 of agonist (TECK) generated on day of experiment) Ki calculation: […]
(In general: A change in cytosolic calcium serves as a functional read-out for many receptors and channels.)
Regarding `N#Cc1cccc(N2C(=O)c3cccc(NS(=O)(=O)c4ccc(Cl)c(C(F)(F)F)c4)c3C2=O)c1` [Compound 41], the inhibition constant (Ki) came to 167 nM.

On to `COc1cc(CN2C(=O)c3c(Cl)ccc(NS(=O)(=O)c4ccc(C(C)(C)C)cc4)c3C2=O)ccn1` [Compound 273], for which the inhibition constant Ki turned out to be 108 nM.

As to `N#Cc1cccc(CN2C(=O)c3c(Cl)ccc(NS(=O)(=O)c4ccc(Cl)c(C(F)(F)F)c4)c3C2=O)c1` [Compound 132], the inhibitory constant (Ki) worked out at 252 nM.

With `CC(C)(C)c1ccc(S(=O)(=O)Nc2ccc(C#N)c3c2C(=O)N(Cc2cccc(C#N)c2)C3=O)cc1` [Compound 127, 4-(tert-butyl)-N-(7-cyano-2-(3-cyanobenzyl)-1,3-dioxoisoindolin-4-yl)benzenesulfonamide], the Ki stood at 153 nM.

For `CC(C)(C)c1ccc(S(=O)(=O)Nc2ccc(Cl)c3c2C(=O)N(CCc2cccnc2)C3=O)cc1` [Compound 116, 4-(tert-butyl)-N-(7-chloro-1,3-dioxo-2-(2-(pyridin-3-yl)ethyl)isoindolin-4-yl)benzenesulfonamide], the Ki stood at 100 nM.

As to `CC(C)(C)c1ccc(S(=O)(=O)Nc2ccc(Cl)c3c2C(=O)N(c2cncs2)C3=O)cc1` [Compound 178], the inhibitory constant (Ki) stood at 164 nM.

On to `CC(C)c1ccc(S(=O)(=O)Nc2ccc(Cl)c3c2C(=O)N(c2cccnc2)C3=O)cc1` [Compound 57], for which the inhibition constant (Ki) is 38 nM.

For the compound `N#Cc1cccc(N2C(=O)c3cccc(NS(=O)(=O)c4ccc(OC(F)(F)F)cc4)c3C2=O)c1` [Compound 40], the Ki was 1360 nM.

In the case of `Cc1ccc(CN2C(=O)c3c(Cl)ccc(NS(=O)(=O)c4ccc(C(C)(C)C)cc4)c3C2=O)c(C)n1` [Compound 248], the Ki came out at 70 nM.

As to `COc1cncc(N2C(=O)c3c(Cl)ccc(NS(=O)(=O)c4ccc(Cl)c(C(F)(F)F)c4)c3C2=O)c1` [Compound 93], the Ki came out at 217 nM.

`COc1nc(C)ccc1CN1C(=O)c2c(Cl)ccc(NS(=O)(=O)c3ccc(C(C)(C)C)cc3)c2C1=O` [Compound 253]: the Ki turned out to be 41 nM.

With `CC(C)c1ccc(S(=O)(=O)Nc2ccc(Cl)c3c2C(=O)N(c2cccc(C#N)c2)C3=O)cc1` [Compound 125], the Ki is 243 nM.

Turning to `N#Cc1cccc(N2C(=O)c3cccc(NS(=O)(=O)c4ccc(C(F)(F)F)cc4)c3C2=O)c1` [Compound 39], the Ki stood at 611 nM.

With `Cc1ccc(CN2C(=O)c3c(Cl)ccc(NS(=O)(=O)c4ccc(C(C)(C)C)cc4)c3C2=O)c(C)[n+]1[O-]` [Compound 252], the Ki is 33 nM.

With `CCOc1nc(C)ccc1CN1C(=O)c2c(Cl)ccc(NS(=O)(=O)c3ccc(C(C)(C)C)cc3)c2C1=O` [Compound 246], the inhibition constant Ki was 125 nM.

For the compound `Cc1ccc(NS(=O)(=O)c2ccc(C(C)(C)C)cc2)c2c1C(=O)N(c1cccnc1)C2=O` [Compound 157, 4-(tert-butyl)-N-(7-methyl-1,3-dioxo-2-(pyridin-3-yl)isoindolin-4-yl)benzenesulfonamide], the Ki worked out at 189 nM.

As for `COc1cncc(N2C(=O)c3c(Cl)ccc(NS(=O)(=O)c4ccc(C(F)(F)F)cc4)c3C2=O)c1` [Compound 92], the Ki was determined as 255 nM.

Take `O=C1c2cccc(NS(=O)(=O)c3cccc(C(F)(F)F)c3)c2C(=O)N1c1cccnc1` [Compound 4]: the Ki came out at 2710 nM.

With `O=C1c2cccc(NS(=O)(=O)c3ccc(OC(F)(F)F)cc3)c2C(=O)N1c1cccnc1` [Compound 5], the inhibitory constant (Ki) is 123 nM.

`CC(C)c1ccc(S(=O)(=O)Nc2ccc(Cl)c3c2C(=O)N(Cc2cccnc2)C3=O)cc1` [Compound 80]: the Ki was found to be 173 nM.

Turning to `O=C1c2c(Cl)ccc(NS(=O)(=O)c3ccc(OC(F)F)cc3)c2C(=O)N1c1cn[nH]c1` [Compound 152], the Ki was determined as 245 nM.

Take `COc1ccc(N2C(=O)c3c(Cl)ccc(NS(=O)(=O)c4ccc(C(C)(C)C)cc4)c3C2=O)[n+]([O-])c1C` [Compound 265]: the Ki was 41 nM.

Take `Cc1ccc(N2C(=O)c3c(Cl)ccc(NS(=O)(=O)c4ccc(C(C)(C)C)cc4)c3C2=O)c[n+]1[O-]` [Compound 205]: the inhibition constant (Ki) worked out at 46 nM.

Turning to `O=C1c2cccc(NS(=O)(=O)c3ccc(Cl)c(C(F)(F)F)c3)c2C(=O)N1c1cccnc1` [Compound 7], the inhibitory constant (Ki) came to 206 nM.

Take `Cc1cncc(N2C(=O)c3c(Cl)ccc(NS(=O)(=O)c4ccc(C(C)C)cc4)c3C2=O)c1` [Compound 105]: the Ki was 311 nM.

`COc1cnc(N2C(=O)c3c(Cl)ccc(NS(=O)(=O)c4ccc(C(C)(C)C)cc4)c3C2=O)cc1C` [Compound 268]: the Ki amounted to 54 nM.

For `Cn1cc(N2C(=O)c3c(Cl)ccc(NS(=O)(=O)c4ccc(C(C)(C)C)cc4)c3C2=O)cn1` [Compound 142], the Ki is 41 nM.

In the case of `Cn1cnc(N2C(=O)c3c(Cl)ccc(NS(=O)(=O)c4ccc(C(F)(F)F)cc4)c3C2=O)c1` [Compound 154], the Ki stood at 32 nM.

Regarding `CC(C)(C#N)c1ccc(S(=O)(=O)Nc2ccc(Cl)c3c2C(=O)N(Cc2ccc[n+]([O-])c2)C3=O)cc1` [Compound 81], the Ki is 148 nM.

In the case of `CC(C)(C)c1ccc(S(=O)(=O)Nc2ccc(Cl)c3c2C(=O)N(c2ccc(F)nc2)C3=O)cc1` [Compound 187], the Ki amounted to 33 nM.

`CC(C)(C)c1ccc(S(=O)(=O)Nc2ccc(Cl)c3c2C(=O)N(c2nccs2)C3=O)cc1` [Compound 146]: the Ki is 154 nM.

Regarding `O=C1c2cccc(NS(=O)(=O)c3ccc(C(F)(F)F)cc3)c2C(=O)N1Cc1cccnc1` [Compound 19], the Ki amounted to 758 nM.

Turning to `O=C1c2c(Cl)ccc(NS(=O)(=O)c3ccc(Cl)c(C(F)(F)F)c3)c2C(=O)N1c1cccnc1` [Compound 48], the Ki was 171 nM.

With `Cn1cc(N2C(=O)c3c(Cl)ccc(NS(=O)(=O)c4ccc(C(C)(C)C)cc4)c3C2=O)c(C(=O)O)n1` [Compound 289], the Ki was determined as 104 nM.

On to `N#Cc1cccc(N2C(=O)c3c(Cl)ccc(NS(=O)(=O)c4ccc(OC(F)F)cc4)c3C2=O)c1` [Compound 124], for which the Ki stood at 224 nM.

For the compound `Cn1cc(N2C(=O)c3c(Cl)ccc(NS(=O)(=O)c4ccc(C(F)(F)F)cc4)c3C2=O)cn1` [Compound 143], the Ki was 64 nM.

As to `CC(C)(C)c1ccc(S(=O)(=O)Nc2ccc(Cl)c3c2C(=O)N(C(C)(C)c2cccnc2)C3=O)cc1` [Compound 107, 4-(tert-butyl)-N-(7-chloro-1,3-dioxo-2-(2-(pyridin-3-yl)propan-2-yl)isoindolin-4-yl)benzenesulfonamide], the Ki is 318 nM.

On to `Cc1ccc(NS(=O)(=O)c2ccc(OC(F)(F)F)cc2)c2c1C(=O)N(Cc1cccnc1)C2=O` [Compound 162], for which the Ki came to 1000 nM.

As for `CCOc1cccc(N2C(=O)c3c(Cl)ccc(NS(=O)(=O)c4ccc(C(C)(C)C)cc4)c3C2=O)[n+]1[O-]` [Compound 210], the Ki amounted to 44 nM.

`COc1ccc(N2C(=O)c3c(Cl)ccc(NS(=O)(=O)c4ccc(C(C)(C)C)cc4)c3C2=O)c[n+]1[O-]` [Compound 180]: the Ki was determined as 78 nM.

On to `N#Cc1cccc(N2C(=O)c3c(Cl)ccc(NS(=O)(=O)c4ccc(OC(F)(F)F)cc4)c3C2=O)c1` [Compound 122], for which the Ki was determined as 175 nM.

For `CC(C)(C)c1ccc(S(=O)(=O)Nc2cccc3c2C(=O)N(c2ccc(C#N)cc2)C3=O)cc1` [Compound 36], the Ki was 1210 nM.

Consider `COc1ccc(N2C(=O)c3c(Cl)ccc(NS(=O)(=O)c4ccc(C(C)(C)C)cc4)c3C2=O)cn1` [Compound 118, 4-(tert-butyl)-N-(7-chloro-2-(6-methoxypyridin-3-yl)-1,3-dioxoisoindolin-4-yl)benzenesulfonamide], for which the inhibition constant Ki was 78 nM.

`CC(C)c1ccc(S(=O)(=O)Nc2ccc(Cl)c3c2C(=O)N(c2cn[nH]c2)C3=O)cc1` [Compound 151]: the Ki came out at 42 nM.

Take `CC(C)(C)c1cccc(S(=O)(=O)Nc2cccc3c2C(=O)N(Cc2cccnc2)C3=O)c1` [Compound 14]: the Ki was found to be 1550 nM.

As for `COc1cncc(N2C(=O)c3c(Cl)ccc(NS(=O)(=O)c4ccc(OC(F)(F)F)cc4)c3C2=O)c1` [Compound 94], the inhibition constant Ki is 244 nM.

As for `Cc1ccc(NS(=O)(=O)c2ccc(C(F)(F)F)cc2)c2c1C(=O)N(Cc1cccnc1)C2=O` [Compound 161], the inhibition constant Ki was 568 nM.

On to `CC(C)(C)c1ccc(S(=O)(=O)Nc2ccc(Cl)c3c2C(=O)N(CCc2ccc[n+]([O-])c2)C3=O)cc1` [Compound 117, 3-(2-(4-(4-(tert-butyl)phenylsulfonamido)-7-chloro-1,3-dioxoisoindolin-2-yl)ethyl)pyridine 1-oxide], for which the inhibition constant Ki is 184 nM.

Regarding `O=C1c2c(Cl)ccc(NS(=O)(=O)c3ccc(C(F)(F)F)cc3)c2C(=O)N1c1cncnc1` [Compound 140], the inhibitory constant (Ki) is 216 nM.

On to `CC(C)(C#N)c1ccc(S(=O)(=O)Nc2ccc(Cl)c3c2C(=O)N(Cc2cccnc2)C3=O)cc1` [Compound 79], for which the Ki was found to be 33 nM.

On to `O=C1c2c(Cl)ccc(NS(=O)(=O)c3ccc(OC(F)F)cc3)c2C(=O)N1c1cccnc1` [Compound 52], for which the Ki came out at 187 nM.

Take `Cc1cc(C)nc(N2C(=O)c3c(Cl)ccc(NS(=O)(=O)c4ccc(C(C)(C)C)cc4)c3C2=O)n1` [Compound 240]: the Ki came to 84 nM.

For `Cc1ccc(CN2C(=O)c3c(Cl)ccc(NS(=O)(=O)c4ccc(C(C)(C)C)cc4)c3C2=O)cn1` [Compound 215], the Ki was 85 nM.
